According to patent US5747477A, “Azo derivatives of 5-aminosalicylic acid” (priority 1995, dated 1998):
Like-named read-outs stand apart in the source and are kept apart here.

Columns and labels:
[1] = tested on: PAF-induced hypotension in normotensive rats; experiment: Test 2- Inhibition of PAF-induced hypotension in normotensive rats; assay type: in vivo, Male Sprague-Dawley rats; settings: intravenous, 3 min. before PAF (0.5 μg/Kg); for ED50: Rattus norvegicus, 0.05 h, read-out: ID50 (dose of test compound required to inhibit hypotension by 50%)
Procedure: Test 2- Inhibition of PAF-induced hypotension in normotensive rats.
Male Sprague-Dawley rats, weighing 180-220 g, were anesthetized with sodium pentobarbital (50 mg/Kg i.p.). Blood pressure was recorded from the left carotid artery using a Statham pressure transducer coupled to a Beckman R611 recorder. Right and left femoral veins were catheterized to inject test compounds and PAF (0.5 μg/Kg). Test compounds were administered by intravenous injection (1 mL/Kg, dissolved in saline) 3 min. before PAF.
Blood pressure was monitored and percent inhibition of PAF-induced hypotension with respect to controls was calculated.

[2] = tested on: platelet aggregation induced by PAF; experiment: Test 1-Inhibition of platelet aggregation induced by PAF (C18-PAF, 15 nM); assay type: cell-based, male New Zealand rabbits; settings: rabbit platelet rich plasma, 15 nM C18-PAF, read-out: IC50 (concentration of drug required to inhibit platelet aggregatory response by 50%)
Procedure: Test 1-Inhibition of platelet aggregation induced by PAF.
Platelet rich plasma (PRP) was prepared by centrifuging the blood at 250xg for 10 min. at 4° C. PRP was diluted with platelet-poor plasma (PPP) obtained by further centrifuging at 3000xg for 10 min. The platelet count was adjusted to 3×10^5 cells/mm^3.

ulcerative colitis = settings: cited from earlier work; for active moiety in ulcerative colitis: Azad Khan et al., Lancet 1977
[3] = after absorption from the colon; cited from earlier work

IC50 ([2]; Oryctolagus cuniculus) [nM] | Compound | ED50 [1] [mg/kg] | also measured
75 | Cc1nc2cnccc2n1CC1CCN(C(=O)CN(c2ccccc2)S(=O)(=O)c2ccc(N)cc2)CC1 [D] | 0.088 | –
30 | CCOC(=O)[C@H](CC(C)C)N(C(=O)c1ccc(N)cc1)S(=O)(=O)c1ccc(Cn2c(C)nc3cnccc32)cc1 [E, N-(4-Aminobenzoyl)-N-[4-(1H-2-methylimidazo[4,5-c]pyridylmethyl)phenylsulfonyl]-L-leucine ethyl ester] | 0.15 | –
12 | CCOC(=O)[C@H](CC(C)C)N(Cc1ccc(N)cc1)S(=O)(=O)c1ccc(Cn2c(C)nc3cnccc32)cc1 [F, N-(4-Aminobenzyl)-N-[4-(1H-2-methylimidazo[4,5-c]pyridylmethyl)-phenylsulfonyl]-L-leucine ethyl ester] | 0.033 | –
16 | CCOC[C@H](CC(C)C)N(Cc1ccc(N)cc1)S(=O)(=O)c1ccc(Cn2c(C)nc3cnccc32)cc1 [G, N-(4-Aminobenzyl)-N-[(S)-1-isobutyl-2-ethoxyethyl]-4-(1H-2-methylimidazo[4,5-c]pyridylmethyl)phenylsulfonamide] | 0.14 | –

The next lines start with the compound.

Compound | IC50 ([2]; Oryctolagus cuniculus) [nM] | ED50 [1] [mg/kg] | also measured
Cc1nc2cnccc2n1CC1CCN(C(=O)CC(C)(C)c2ccc(N)cc2)CC1 [A, 1-[[1-[3-(4-Aminophenyl)-3-methylbutanoyl]-4-piperidyl]methyl]-1H-2-methylimidazo[4,5-c]pyridine] | 19 | 0.099 | –
Cc1nc2cnccc2n1CC1CCN(C(=O)/C=C(/c2ccccc2)c2ccc(N)cc2)CC1 [B, cis-1-[[1-[3-(4-Aminophenyl)-3-phenylpropenoyl]-4-piperidyl]methyl]-1H-2-methylimidazo[4,5-c]pyridine] | – | – | ID50 (dose of test compound required to inhibit hypotension by 50%) [1]: 0.029 mg/kg; IC50 [2]: 18 nM
Cc1nc2cnccc2n1CC1CCN(C(=O)/C=C(\c2ccccc2)c2ccc(N)cc2)CC1 [C, trans-1-[[1-[3-(4-Aminophenyl)-3-phenylpropenoyl]-4-piperidyl]methyl]-1H-2-methylimidazo[4,5-c]pyridine] | – | – | ID50 (dose of test compound required to inhibit hypotension by 50%) [1]: 0.01 to 0.025 mg/kg; IC50 [2]: 5 nM
Nc1ccc(O)c(C(=O)O)c1 [Compound 5-ASA, 5-aminosalicylic acid] | – | – | active moiety in ulcerative colitis (ulcerative colitis): in ulcerative colitis the active moiety is 5-ASA
Nc1ccc(S(=O)(=O)Nc2ccccn2)cc1 [Sulfapyridine, sulfapyridine] | – | – | active moiety in ulcerative colitis (ulcerative colitis): acts only as a carrier; side effects of sulfasalazine ascribed to the moiety (ulcerative colitis; Das et al., New Engl. J. Med. 1973): Most of the side effects of sulfasalazine have been ascribed to the sulfapyridine moiety; metabolism and excretion [3]: metabolised and excreted in the urine
